Source: patent US6875762B2, “Tetracyclic azepinoindole compounds” (Pfizer, priority 1999, dated 2005)
Where a name gives a salt, the structure may show the parent alone.

biological target: T1, Human 5-HT2C receptor (Homo sapiens, UniProt P28335); assay: Test A: scintillation proximity radioligand binding assay with [3H]serotonin; conditions: Receptor binding 5HT2c Ki (nM), membranes of HEK293-h5-HT2C-5 cells; [3H]serotonin final 4 nM; IC50 converted by Cheng-Prusoff, Kd 7 nM
T1 construct: expressed in transfected cells; host or cells: HEK293 (HEK293-h5-HT2C-5 cell line), membranes
Method: The gene was inserted into expression vectors containing resistance genes as selectable markers. […] The receptor was used under license from D. J. Julius at Columbia University.
The HEK293-h5-HT2C-5 cell line was seeded from frozen stocks into DMEM high glucose salts medium supplemented with sodium pyruvate, Penicillin/Streptomycin solution, G418 (0.25 g/L), hygromycin B ([…]), and Fetal Bovine Serum (3%). […] At approximately 90% confluency, the cells were rinsed with ice-cold PBS and scraped from the NUNC plates using 3M squeegees. The cells were broken with a VirTishear homogenizer. The remaining particulate matter was removed by low-speed centrifugation. Finally, the membranes were concentrated by high-speed centrifugation and resuspended in binding buffer, 50 mM TRIS, 5 mM MgCl2, pH 7.4. The preparation was held in a water-ice slurry while a pilot binding assay was performed (1.5 hours), and then quick-frozen in aliquots appropriate for 1 tube for each 96-well assay plate.
Assays were performed in Wallac microtitre PET plates designed for the Wallac microBeta LSC. Binding reactions contained test compound (11 μl), [^3H]serotonin (124 Ci/mmol, 11 μl for final 4 nM) and bead-membrane mixture (178 μl). The test compound was replaced by water to determine total binding, or by mianserin (5 μM) to define non-specific binding.
The bead-membrane mixture was made by adding 100 mg Wheatgerm Agglutinin SPA beads (Amersham) and membrane preparation (2-5 mg protein) in a total of 8 ml binding buffer for each 96-well assay plate. The mixture was stirred gently for 30 minutes at room temperature, followed by centrifugation (1000 RPM, Beckman Accuspin FR) for 10 minutes. The supernatant, containing excess membrane, was aspirated, and the beads resuspended in 18.5 ml binding buffer for each assay plate. The washed bead-membrane mix was then poured into a reagent reservoir. The mixture was pipetted into the assay plate with a multi-channel pipetter, maintaining constant stirring during pipetting.
After the reactions were complete, the plates were sealed with plastic tape and placed on a gyrotory shaker (150 rpm) for 5 minutes. After shaking, room temperature incubation continued for 2 hours. Finally, the plates were loaded into counting cassettes and counted with the Wallac microBeta LSC.
Eleven half-log serial dilutions of test compounds were made in water using the PE/Cetus Pro/Pette pipetter. These dilutions were distributed to assay plates using the same instrument, followed by radioligand and the bead-membrane mixture prepared as described above. The specifically bound cpm obtained were fit to a one-site binding model using GraphPad Prism ver. 2.0.

T1 sequence (P28335 33-458): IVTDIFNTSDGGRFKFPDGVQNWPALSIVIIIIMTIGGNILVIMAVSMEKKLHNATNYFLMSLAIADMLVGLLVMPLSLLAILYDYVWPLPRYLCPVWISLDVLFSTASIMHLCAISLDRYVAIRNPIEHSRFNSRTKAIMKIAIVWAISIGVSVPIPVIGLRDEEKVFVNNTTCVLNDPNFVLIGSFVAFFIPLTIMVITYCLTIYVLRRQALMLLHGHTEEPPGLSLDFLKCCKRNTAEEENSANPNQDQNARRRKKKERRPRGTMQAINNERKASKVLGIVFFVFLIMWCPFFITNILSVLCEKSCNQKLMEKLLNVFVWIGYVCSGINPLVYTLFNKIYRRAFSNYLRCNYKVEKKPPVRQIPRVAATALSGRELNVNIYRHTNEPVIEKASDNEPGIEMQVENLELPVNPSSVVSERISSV

Q: With `c1cc2c3c(c1)c1c(n3CC2)CCNCC1` [Example 14, 4,5,8,9,10,11-hexahydro-7H-azepino[4,5-b]pyrrolo[3,2,1-hi]indole hydrochloride] as the compound, how does the Ki read?
A: 28 nM

Q: With `Cc1cc2c3c(c1)c1c(n3CCO2)CCNCC1` [Example 24, 5-methyl-1,2,8,9,10,11-hexahydro-7H-azepino[4,5-b][1,4]oxazino[2,3,4-hi]indole hydrochloride] as the compound, how does the Ki read?
A: 29 nM

Q: Which Ki does the source give for `Fc1cc2c3c(c1)c1c(n3CC2)CCNCC1` [Example 15, 2-fluoro-4,5,8,9,10,11-hexahydro-7H-azepino[4,5-b]pyrrolo[3,2,1-hi]indole hydrochloride] here?
A: 24 nM

Q: For `CC1CCn2c3c(c4cccc1c42)CCNCC3` (single isomer, unassigned; (-)) [Example 13, (−)-4-methyl-5,6,9,10,11,12-hexahydro-4H,8H-azepino[4′,5′:4,5]pyrrolo[3,2,1-ij]quinoline hydrochloride], which Ki is on record?
A: 45 nM

Q: For `CC1CCn2c3c(c4cccc1c42)CCNCC3` (stereo not drawn) [Example 7, 4-methyl-5,6,9,10,11,12-hexahydro-4H,8H-azepino[4′,5′:4,5]pyrrolo[3,2,1-ij]quinoline hydrochloride], which Ki is on record?
A: 77 nM

Q: `CC1CCn2c3c(c4cccc1c42)CCNCC3` (single isomer, unassigned; (+)) [Example 12, (+)-4-methyl-5,6,9,10,11,12-hexahydro-4H,8H-azepino[4′,5′:4,5]pyrrolo[3,2,1-ij]quinoline hydrochloride] was tested. Which Ki did it give?
A: 41 nM

Q: How did the Ki turn out when `COc1ccc2c3c1c1c(n3CCC2)CCNCC1` [Example 3, 1-methoxy-5,6,9,10,11,12-hexahydro-4H,8H-azepino[4′,5′:4,5]pyrrolo[3,2,1-ij]quinoline hydrochloride] was run?
A: 27 nM

Q: With `COc1cc2c3c(c1)c1c(n3CC2)CCNCC1` [Example 16, 2-methoxy-4,5,8,9,10,11-hexahydro-7H-azepino[4,5-b]pyrrolo[3,2,1-hi]indole hydrochloride] as the compound, how does the Ki read?
A: 361 nM

Q: For `CC1Cc2cccc3c4c(n1c23)CCNCC4` (stereo not drawn) [Example 17, 5-methyl-4,5,8,9,10,11-hexahydro-7H-azepino[4,5-b]pyrrolo[3,2,1-hi]indole hydrochloride], which Ki is on record?
A: 65 nM

same assay, conditions: membranes of HEK293-h5-HT2C-5 cells; [3H]serotonin final 4 nM; IC50 converted by Cheng-Prusoff, Kd 7 nM; read-out: Receptor binding 5HT2c Ki

Q: With `CC1Cc2cccc3c4c(n(c23)C1)CCNCC4` (stereo not drawn) [Example 6, 5-methyl-5,6,9,10,11,12-hexahydro-4H,8H-azepino[4′,5′:4,5]pyrrolo[3,2,1-ij]quinoline hydrochloride] as the compound, how does the Ki read?
A: 44 nM

Q: With `c1cc2c3c(c1)c1c(n3CCS2)CCNCC1` [Example 27, 1,2,8,9,10,11-hexahydro-7H-azepino[4,5-b][1,4]thiazino[2,3,4-hi]indole hydrochloride] as the compound, how does the Ki read?
A: 5.1 nM

Q: For `CC1Cc2cccc3c4c(n(c23)C1)CCNCC4` (single isomer, unassigned; (-)) [Example 11, (−)-5-methyl-5,6,9,10,11,12-hexahydro-4H,8H-azepino[4′,5′:4,5]pyrrolo[3,2,1-ij]quinoline hydrochloride], which Ki is on record?
A: 96 nM

Q: `Fc1cc2c3c(c1)c1c(n3CCC2)CCNCC1` [Example 4, 2-fluoro-5,6,9,10,11,12-hexahydro-4H,8H-azepino[4′,5′:4,5]pyrrolo[3,2,1-ij]quinoline hydrochloride] was tested. Which Ki did it give?
A: 83 nM

Q: For `Cc1ccc2c3c1c1c(n3CCO2)CCNCC1` [Example 20, 6-methyl-1,2,8,9,10,11-hexahydro-7H-azepino[4,5-b][1,4]oxazino[2,3,4-hi]indole hydrochloride], which Ki is on record?
A: 3.8 nM

Q: Which Ki does the source give for `Cc1cc2c3c(c1)c1c(n3CCC2)CCNCC1` [Example 2, 2-methyl-5,6,9,10,11,12-hexahydro-4H,8H-azepino[4′,5′:4,5]pyrrolo[3,2,1-ij]quinoline hydrochloride] here?
A: 80 nM

Q: With `CC1Cc2cccc3c4c(n(c23)C1)CCNCC4` (single isomer, unassigned; (+)) [Example 10, (+)-5-methyl-5,6,9,10,11,12-hexahydro-4H,8H-azepino[4′,5′:4,5]pyrrolo[3,2,1-ij]quinoline hydrochloride] as the compound, how does the Ki read?
A: 70 nM

Q: Which Ki does the source give for `c1cc2c3c(c1)c1c(n3CCO2)CCNCC1` [Example 21, 1,2,8,9,10,11-hexahydro-7H-azepino[4,5-b][1,4]oxazino[2,3,4-hi]indole hydrochloride] here?
A: 16 nM

Q: Which Ki does the source give for `CC1Cn2c3c(c4cccc(c42)O1)CCNCC3` (stereo not drawn) [Example 26, 2-methyl-1,2,8,9,10,11-hexahydro-7H-azepino[4,5-b][1,4]oxazino[2,3,4-hi]indole hydrochloride] here?
A: 29 nM

Q: `CC1c2cccc3c4c(n(c23)C1C)CCNCC4` (stereo not drawn) [Example 18, 4,5-dimethyl-4,5,8,9,10,11-hexahydro-7H-azepino[4,5-b]pyrrolo[3,2,1-hi]indole hydrochloride] was tested. Which Ki did it give?
A: 52 nM

Q: How did the Ki turn out when `Fc1ccc2c3c1c1c(n3CCO2)CCNCC1` [Example 25, 6-fluoro-1,2,8,9,10,11-hexahydro-7H-azepino[4,5-b][1,4]oxazino[2,3,4-hi]indole hydrochloride] was run?
A: 8 nM

Q: How did the Ki turn out when `CC1CCc2cccc3c4c(n1c23)CCNCC4` (single isomer, unassigned; (+)) [Example 8, (+)-6-methyl-5,6,9,10,11,12-hexahydro-4H,8H-azepino[4′,5′:4,5]pyrrolo[3,2,1-ij]quinoline hydrochloride] was run?
A: 51 nM

Q: `CC1CCc2cccc3c4c(n1c23)CCNCC4` (single isomer, unassigned; (-)) [Example 9, (−)-6-methyl-5,6,9,10,11,12-hexahydro-4H,8H-azepino[4′,5′:4,5]pyrrolo[3,2,1-ij]quinoline hydrochloride] was tested. Which Ki did it give?
A: 26 nM

Q: `CC1CCc2cccc3c4c(n1c23)CCNCC4` (stereo not drawn) [Example 5, 6-methyl-5,6,9,10,11,12-hexahydro-4H,8H-azepino[4′,5′:4,5]pyrrolo[3,2,1-ij]quinoline hydrochloride] was tested. Which Ki did it give?
A: 33 nM

Q: With `Fc1cc2c3c(c1)c1c(n3CCO2)CCNCC1` [Example 23, 5-fluoro-1,2,8,9,10,11-hexahydro-7H-azepino[4,5-b][1,4]oxazino[2,3,4-hi]indole hydrochloride] as the compound, how does the Ki read?
A: 13 nM

Q: For `c1cc2c3c(c1)c1c(n3CCC2)CCNCC1` [Example 1, 5,6,9,10,11,12-hexahydro-4H,8H-azepino[4′,5′:4,5]pyrrolo[3,2,1-ij]quinoline hydrochloride], which Ki is on record?
A: 13 nM

Q: `Clc1ccc2c3c1c1c(n3CCO2)CCNCC1` [Example 22, 6-chloro-1,2,8,9,10,11-hexahydro-7H-azepino[4,5-b][1,4]oxazino[2,3,4-hi]indole hydrochloride] was tested. Which Ki did it give?
A: 2.3 nM

Q: `c1cc2c3c(c1)c1c(n3C3CCCCC23)CCNCC1` (stereo not drawn) [Example 19, 2,3,4,5,8b,9,10,11,12,12a-decahydro-1H-azepino[4′,5′:4,5]pyrrolo[3,2,1-jk]carbazole hydrochloride] was tested. Which Ki did it give?
A: 144 nM
